Laboratory results: PMC9864790, “Cell-Penetrating Dabcyl-Containing Tetraarginines with Backbone Aromatics as Uptake Enhancers” (Pharmaceutics, 2022)
Where two headings read alike, the source gives them in different places. Starred links: 1 amine or outer side, 2 acyl side, 3 side chain; linkers in the order of their positions; H or OH if unused. Non-standard residues stand in square brackets, D forms with d. Residues, ends and D or L forms follow the SMILES beside them. Groups on a side chain read outwards from the residue. *: point of attachment. Daunorubicin = COc1cccc2c1C(=O)c1c(O)c3c(c(O)c1C2=O)C[C@@](O)(C(C)=O)C[C@@H]3O[C@H]1C[C@H](N*)[C@H](O)[C@H](C)O1; Dabcyl = CN(C)c1ccc(N=Nc2ccc(C(=O)*)cc2)cc1; X1 = O=C(c1ccc2cc(N[*:1])ccc2c1)[*:2]; Suc = O=C(CCC(=O)[*:2])[*:1]; 4Amb = NCc1ccc(C(=O)O)cc1; 4Abz = Nc1ccc(C(=O)O)cc1

Legend:
MCF-7 [1] = test: In vitro cytostatic activity, MTT assay; assay type: cell-based, human; settings: 3 h incubation with compound (0.4–100 µM), then 3 days culture in serum containing medium, three independent experiments with 4 parallel measurements
Method: (§1) Cells were grown to confluency and were plated into 96-well plates with initial cell number of 5 × 10^3 per well. The cells were incubated at 37 °C for 24 h. Then, cells were treated with the compounds at 0.4–100 µM concentration range for 3 h in 200 µL as the final volume. Control cells were treated with serum free medium at 37 °C for 3 h. After the incubation, the cells were washed with serum free medium twice. To analyze the in vitro cytostatic effect, cells were further cultured for 72 h in serum containing medium. Then, the MTT assay was performed to measure the IC50 values. […] The cells were incubated for 4 h. Then, the plates were centrifuged at 900× g for 5 min, and the supernatant was discarded. To dissolve the formed purple crystals, 100 µL of DMSO was added, and the absorbance was determined at λ = 540 nm and 620 nm using ELISA plate reader (iEMS Reader, Labsystems, Finland). To measure the percentage of cytostasis, the following equation was used for calculation: Cytostatic effect (%) = [1 − (ODtreated/ODcontrol)] × 100; where ODtreated and ODcontrol correspond to the optical densities of the treated and untreated cells, respectively. In each case, three independent experiments were carried out with 4 parallel measurements. […] The curves were defined using MicrocalTM Origin (version 9.2) software: cytostasis was plotted as a function of concentration, fitted to a sigmoidal curve, and based on this curve, the IC50 value was determined.

MDA-MB-231 [2] = test: In vitro cytostatic activity, MTT assay; assay type: cell-based, human; settings: 3 h incubation with compound (0.4–100 µM), then 3 days culture in serum containing medium, three independent experiments with 4 parallel measurements
Method: as §1

MCF-7 [3] = settings: 3 h incubation, 3 days culture, MTT assay; cited from earlier work
Excerpt: Table 3 Cytostatic activity of peptide/drug conjugates on MCF-7 and MDA-MB-231. | column: IC50 ±SD (µM) ^a / MCF-7

MDA-MB-231 [4] = settings: 3 h incubation, 3 days culture, MTT assay; cited from earlier work
Excerpt: Table 3 Cytostatic activity of peptide/drug conjugates on MCF-7 and MDA-MB-231. | column: IC50 ±SD (µM) ^a / MDA-MB-231

MDA-MB-231 cells [5] = test: Effect of endocytosis inhibitors on cellular uptake (flow cytometry); assay type: cell-based, human; settings: then Cf-labelled peptide conjugate 5 µM, 90 min, 37 °C; for Effect of EIPA on uptake: EIPA 50 µM pretreatment 30 min; for Effect of CPZ on uptake: chlorpromazine (CPZ) 30 µM pretreatment 30 min; for Effect of COL on uptake: colchicine (COL) 20 µM pretreatment 30 min
Excerpt: Several endocytic routes can be used by CPPs for entry, which then determine their intracellular fate. […] The following inhibitors were applied: 5-(N-ethyl-N-isopropyl)amiloride (EIPA) as […] [39], chlorpromazine (CPZ) to inhibit clathrin-mediated endocytosis, methyl-beta-cyclodextrin (CyD) to deplete cholesterol from the lipid rafts, and thus to inhibit caveolae-mediated endocytosis. Finally, colchicine (COL) was used to ascertain if microtubules are involved in the uptake of the peptides as this agent inhibits microtubule formation.
The effect of inhibitors was studied in the same manner but with pretreatment by an inhibitor for 30 min, and subsequently treated with a peptide conjugate at 5 µM. The cells were then incubated for 90 min at 37 °C. Macropinocytosis was inhibited using 5-(N-Ethyl-N-isopropyl)amiloride (EIPA), clathrin-mediated endocytosis with chlorpromazine (CPZ), colchicine (Col) to assess the role of microtubules, and methyl-β-cyclodextrin (CyD) for the inhibition of caveolae/lipid-raft-mediated endocytosis.
Figure 8 Effect of endocytosis inhibitors on the cellular uptake of peptide conjugates. MDA-MB-231 cells were pretreated with inhibitors EIPA (50 µM), CPZ (30 µM), CyD (5 mM) and COL (20 µM) for 30 min, the cells were then treated with the peptide conjugates (5 µM) for 90 min. Significant difference from control was measured using student’s t test (* p <0.05, ** p < 0.01and **** p< 0.0001).

MDA-MB-231 cells [6] = test: Effect of ATP depletion (NaN3 and DOG) on cellular uptake (flow cytometry); assay type: cell-based, human; settings: NaN3 10 mM and DOG 5 mM pretreatment 30 min, then peptide conjugate 5 µM, 90 min, 37 °C
Method: In order to inhibit all pathways of endocytosis, MDA-MB-231 cells were pretreated with sodium azide (NaN3) (10 mM) and 2-Deoxyglucose (DOG) (5 mM) for 30 min and the peptide was added to the wells. The cells were then incubated for 90 min at 37 °C.
Figure 9 Effect of endocytosis inhibitors on the cellular uptake of peptide conjugates. MDA-MB-231 cells were pretreated with NaN3 (10 mM) and DOG (5 mM) for 30 min, the cells were then treated with the peptide conjugates (5 µM) for 90 min. Significant difference from control was measured using Student’s t test (* p < 0.05 and ** p < 0.01).

MDA-MB-231 cells [7] = test: Cellular uptake of fluorescently labelled peptides by flow cytometry; assay type: cell-based, human; settings: 90 min, flow cytometry after trypsin treatment
Method: Cellular uptake of peptides was measured using flow cytometry on MCF-7 and MDA-MB-231 cells. Cells were treated with the fluorescently labelled peptides at 1, 5 and 10 µM concentrations for 90 min at 37 °C.
To study the cellular uptake of fluorophore-labelled peptides, 10^5 cells per well were plated on 24-well plates. Cells were incubated for 24 h at 37 °C, followed by treatment with the peptides at different concentrations, in serum-free medium for different time intervals. For negative control, cells were treated with serum-free medium. After the incubation, the peptide solutions were removed and 100 µL trypsin (0.25%) was added for 5–10 min to remove membrane bound peptides and detach the adherent cells from the plates. […] The fluorescence intensity of cells was quantified by flow cytometer (BD LSR II, BD Bioscience, San Jose, CA, USA). Data were analyzed with FACSDiVa 5.0 software.
Cells were treated with 1, 5 and 10 µM peptide solution for 90 min. The fluorescence intensity of the cells was determined by flow cytometry after trypsin treatment. […]
Cells were treated with 1, 5 and 10 µM peptide solutions for 90 min. The fluorescence intensity of the cells was determined by flow cytometry after trypsin treatment.

Compound | IC50 (MCF-7 [1]) [µM] | IC50 (MDA-MB-231 [2]) [µM] | IC50 (MCF-7 [3]) [µM] | IC50 (MDA-MB-231 [4]) [µM] | further results
COc1cccc2c1C(=O)c1c(O)c3c(c(O)c1C2=O)C[C@@](O)(C(C)=O)C[C@@H]3O[C@H]1C[C@H](NC(=O)CCC(=O)NCCCC[C@H](NC(=O)[C@H](CCCNC(=N)N)NC(=O)[C@H](CCCNC(=N)N)NC(=O)[C@H](CCCNC(=N)N)NC(=O)[C@H](CCCNC(=N)N)NC(=O)c2ccc(CNC(=O)c3ccc(N=Nc4ccc(N(C)C)cc4)cc3)cc2)C(N)=O)[C@H](O)[C@H](C)O1 [Dabcyl-AMBA-Arg-Arg-Arg-Arg-Lys(DauSuc)] ({Dabcyl-4Amb}-RRRRK([Suc-Daunorubicin])-NH2) | 10.3 ± 5 | 10.1 ± 6 |  |  | 
COc1cccc2c1C(=O)c1c(O)c3c(c(O)c1C2=O)C[C@@](O)(C(C)=O)C[C@@H]3O[C@H]1C[C@H](NC(=O)CCC(=O)NCCCC[C@H](NC(=O)[C@H](CCCNC(=N)N)NC(=O)[C@H](CCCNC(=N)N)NC(=O)[C@H](CCCNC(=N)N)NC(=O)[C@H](CCCNC(=N)N)NC(=O)c2ccc3cc(NC(=O)c4ccc(N=Nc5ccc(N(C)C)cc5)cc4)ccc3c2)C(N)=O)[C@H](O)[C@H](C)O1 [Dabcyl-NAPH- Arg-Arg-Arg-Arg-Lys(DauSuc)] (Dabcyl-[X1]RRRRK([Suc-Daunorubicin])-NH2) | 15 ± 4.2 | 16.6 ± 0.5 |  |  | 
COc1cccc2c1C(=O)c1c(O)c3c(c(O)c1C2=O)C[C@@](O)(C(C)=O)C[C@@H]3O[C@H]1C[C@H](NC(=O)CCC(=O)NCCCC[C@H](NC(=O)[C@H](CCCNC(=N)N)NC(=O)[C@H](CCCNC(=N)N)NC(=O)[C@H](CCCNC(=N)N)NC(=O)[C@H](CCCNC(=N)N)NC(=O)c2ccc(NC(=O)c3ccc(N=Nc4ccc(N(C)C)cc4)cc3)cc2)C(N)=O)[C@H](O)[C@H](C)O1 [Dabcyl-PABA- Arg-Arg-Arg-Arg-Lys(DauSuc)] ({Dabcyl-4Abz}-RRRRK([Suc-Daunorubicin])-NH2) | 17.7 ± 1.2 | 14.3 ± 1.1 |  |  | 
CN(Cc1cnc2nc(N)nc(N)c2n1)c1ccc(C(=O)N[C@@H](CCC(=O)O)C(=O)O)cc1 [MTX, methotrexate] |  |  | 0.8 ± 0.3 | > 100 | 
Dabcyl-AMBA-RRRRK |  |  |  |  | Effect of EIPA on uptake (MDA-MB-231 cells [5]): decreased the uptake; Effect of CPZ on uptake (MDA-MB-231 cells [5]): did not cause any inhibition; Effect of COL on uptake (MDA-MB-231 cells [5]): did not cause any inhibition; Uptake after pretreatment with NaN3 and DOG (MDA-MB-231 cells [6]): significantly lower
Dabcyl-PABA-RRRRK |  |  |  |  | Effect of EIPA on uptake (MDA-MB-231 cells [5]): did not alter the internalization; Effect of CPZ on uptake (MDA-MB-231 cells [5]): did not cause any inhibition; Effect of COL on uptake (MDA-MB-231 cells [5]): did not cause any inhibition; Uptake after pretreatment with NaN3 and DOG (MDA-MB-231 cells [6]): significantly lower; Uptake relative to Arg8 (MDA-MB-231 cells [7]; CY5-labelled peptide, at all concentrations (1, 5 and 10 µM)): 3 to 4.5 folds; Relative uptake intensity (MDA-MB-231 cells [7]; Cf-labelled peptide, 10 µM, 37 °C, fluorescence intensity relative to Dabcyl-RRWRRK(Cf) at 10 µM (100%)): 340%
Dabcyl-Trp-Arg-Arg-Arg-Arg-Lys(DauSuc) |  |  | 26.4 ± 4.2 | 18 ± 6.7 | 
Dabcyl-Trp-Arg-Arg-Arg-Arg-Lys(MTX) |  |  | 36.9 ± 3 | 7.4 ± 2.2 | 
Succinylated daunomycin [DauSuc] |  |  | 24.5 ± 7.1 | > 100 | 
